Measured values published in patent US12527762B2 (priority 2021, dated 2026).
Values joined by “and” are separate entries in the source; they are usually repeats but may differ in a detail not shown here. Equal entries are not always repeated. Where two headings read alike, the source gives them in different places.

Experiments:
[1] = test system: MIAPACA-2 pancreatic cancer cell line; settings: value from literature, read-out: IC50 (positive control); cited from earlier work
[2] = test system: PANC-1 pancreatic cancer cell line; settings: value from literature, read-out: IC50 (positive control); cited from earlier work
[3] = test system: ZR-75-1 hormone-positive breast cancer cell line; assay: Luminescent cell viability assay (CellTiter glo), subtype-specific breast cancer cell lines; type: cell-based; settings: for IC50: ZR-75-1, hormone-positive breast cancer cell line; for IC50 fold lower than Tamoxifen: ZR-75-1 cells
[4] = test system: HCC1419 HER2-positive breast cancer cell line; assay: as above; type: cell-based; settings: for IC50: HCC1419, HER2-positive breast cancer cell line; for IC50 fold lower than Herceptin: HCC1419 cells
[5] = test system: MCF7/PR Paclitaxel resistant MCF7 cell line; assay: as above; type: cell-based
[6] = test system: MDA-MB-231 breast cancer cell line; settings: value from literature, read-out: IC50 (positive control); cited from earlier work
[7] = test system: MDA-MB-231 triple negative breast cancer cell line; assay: Luminescent cell viability assay (CellTiter glo), subtype-specific breast cancer cell lines; type: cell-based; settings: for IC50: MDA-MB-231, triple negative breast cancer cell line; for IC50 fold lower than Cisplatin: MDA-MB-231 cells
[8] = test system: HCC1937 triple negative breast cancer cell line; assay: as above; type: cell-based
[9] = test system: MCF-7 breast cancer cell line; settings: value from literature, read-out: IC50 (positive control); cited from earlier work
[10] = test system: MDA-MB-453 HER2-positive breast cancer cell line; assay: Luminescent cell viability assay (CellTiter glo), subtype-specific breast cancer cell lines; type: cell-based
[11] = in vitro; settings: African green monkey
[12] = test system: SARS-CoV-2; assay: microbe, parasite or virus in culture; type: cell-based
[13] = test system: Vero cells
[14] = test system: Hep-3B liver cancer cell line; assay: Inhibition of cancer cell proliferation, CCK-8 assay; type: cell-based
[15] = test system: MDA-MB-231 breast cancer cell line; assay: as above; type: cell-based
[16] = test system: H-1299 non-small cell lung cancer cell line; assay: as above; type: cell-based
[17] = test system: MCF-7 breast cancer cell line; assay: as above; type: cell-based
[18] = test system: Huh-7 liver cancer cell line; assay: as above; type: cell-based
[19] = test system: A-549 non-small cell lung cancer cell line; assay: as above; type: cell-based
[20] = test system: PANC-1 pancreatic cancer cell line; assay: as above; type: cell-based
[21] = test system: MIAPACA-2 pancreatic cancer cell line; assay: as above; type: cell-based
[22] = test system: Hep-3B liver cancer cell line; settings: value from literature, read-out: IC50 (positive control); cited from earlier work
[23] = test system: Huh-7 liver cancer cell line; settings: value from literature, read-out: IC50 (positive control); cited from earlier work
[24] = Artificial membrane permeability of camostat, side-bi-side cell system (GIT-0-Lipid on PVDF membrane); type: in vitro ADME
Experimental: As an artificial membrane, 200 μl of a GIT-0-Lipid solution was used by dropping on the center of a 25 mm hydrophobic PVDF membrane. 5 ml of a 37° C. pH 5.0 FeSSIF solution was taken and contained in a donor cell, and 20 mg of the sample was weighed and administered to the donor cell. The test was started after adding 5 ml of an ethyl alcohol. pH 7.4 PBS buffer (1:9, v/v) solution to an acceptor cell, and 200 μl of the solution was taken five times from the acceptor cell every predetermined time and used as a test solution. Then, the acceptor cell was filled with 1 ml of the ethyl alcohol: pH 7.4 PBS buffer (1:9, v/v) solution to maintain a total volume of 5 ml.

[25] = Solubility of niclosamide in pH 7 buffer solution (HPLC); type: physicochemical
Experimental: A pH 7 solution prepared by mixing 0.1 N potassium phosphate and 0.1 N sodium hydroxide was used as the pH 7 buffer solution. […] After 1 hour of stirring, 5 ml of a supernatant was filtered with a 0.45 μm PVDF filter, and then the amount of dissolved niclosamide was evaluated using the filtered solution as a sample.

[26] = type: in vitro ADME; settings: PAMPA
Experimental: The permeability of an artificial membrane (barrier membrane from PermeaPad, 25 mm) to niclosamide of the cocrystal of Example 17 of the present invention was evaluated using the side-bi-side cell system, and compared with that of the niclosamide single material. 5 ml of an FeSSIF solution (37° C.) at pH 6.5 added with 3% (w/w) Kolliphor ELP was taken and contained in a donor cell, and […] of each sample was weighed and administered to the donor cell. 5 ml of a PBS solution of pH 7.4 added with 20% (w/w) HP-β-CD was added to the acceptor cell, the test was started, and 200 μl of the solution was taken 5 times from the acceptor cell every predetermined time and used as the test solution. Then, the acceptor cell was filled with the PBS solution of pH 7.4 added with 1 ml of 20% (w/w) HP-p-CD, and the total volume was maintained at 5 ml.

[27] = SARS-CoV-2 in Vero cells, 24 hours after infection, read-out: IC50
[28] = Severe acute respiratory syndrome coronavirus 2, SARS-CoV-2 in Vero cells, 24 hours after infection, read-out: IC50

Nc1ccn([C@@H]2O[C@H](CO)[C@@H](O)C2(F)F)c(=O)n1 [Gemcitabine]
IC50 [1]: 92.7 µM | IC50 [2]: 42.9 µM

CC(=O)O[C@@]12CO[C@@H]1C[C@H](O)[C@@]1(C)C(=O)[C@H](O)C3=C(C)[C@@H](OC(=O)[C@H](O)[C@@H](NC(=O)OC(C)(C)C)c4ccccc4)C[C@@](O)([C@@H](OC(=O)c4ccccc4)[C@H]21)C3(C)C [Docetaxel, reference compound]
IC50 ([3]; Homo sapiens): 24.2 µM | IC50 ([4]; Homo sapiens): ≥ 25 µM | IC50 ([5]; Homo sapiens): 11.4 µM | IC50 [6]: 0.635 µM | IC50 ([7]; Homo sapiens): ≥ 25 µM | IC50 ([8]; Homo sapiens): ≥ 25 µM | IC50 [9]: 0.763 µM | IC50 ([10]; Homo sapiens): ≥ 25 µM

CCC(CC)COC(=O)[C@H](C)N[P@](=O)(OC[C@H]1O[C@@](C#N)(c2ccc3c(N)ncnn23)[C@H](O)[C@@H]1O)Oc1ccccc1 [Remdesivir]
CC50 [11]: > 50 µM | IC50 fold higher than the IC50 of the cocrystal ([12]; SARS-CoV-2 in Vero cells): about 21.75 fold | SI (selectivity index, CC50/IC50) ([12]; SARS-CoV-2 in Vero cells): 14.35 | IC50 ([12]; Severe acute respiratory syndrome coronavirus 2, Vero, 24 h): 3.48 µM

CN(C)C(=O)COC(=O)Cc1ccc(OC(=O)c2ccc(NC(=N)N)cc2)cc1.O=C(Nc1ccc([N+](=O)[O-])cc1Cl)c1cc(Cl)ccc1O [Example 1]
IC50 [3]: 5.37 µM | IC50 fold lower than Tamoxifen [3]: 1.7 fold | IC50 [4]: 1.27 µM | IC50 fold lower than Herceptin [4]: 19 fold | IC50 [5]: 5.69 µM | CC50 [13]: > 50 µM | IC50 fold lower than Sorafenib ([14]; Hep-3B cells): 297 fold | IC50 ([14]; Hep-3B, 48 hours drug treatment): 0.0413 µM | IC50 ([15]; MDA-MB-231, 48 hours drug treatment): 0.126 µM | IC50 fold lower than docetaxel ([15]; MDA-MB-231 cells): 5 fold | IC50 ([16]; H-1299, 48 hours drug treatment): 0.381 µM | IC50 fold lower than gefitinib ([16]; H-1299 cells): 45 fold | IC50 ([17]; MCF-7, 48 hours drug treatment): 0.428 µM | IC50 fold lower than docetaxel ([17]; MCF-7 cells): 1.7 fold | IC50 [7]: 1.75 µM | IC50 fold lower than Cisplatin [7]: 14 fold | IC50 [8]: 4.98 µM | IC50 ([18]; Huh-7, 48 hours drug treatment): 0.134 µM | IC50 fold lower than Sorafenib ([18]; Huh-7 cells): 44 fold | IC50 ([19]; A-549, 48 hours drug treatment): 0.976 µM | IC50 fold lower than gefitinib ([19]; A-549 cells): 13 fold | IC50 ([20]; PANC-1, 48 hours drug treatment): 0.0993 µM | IC50 fold lower than gemcitabine ([20]; PANC-1 cell line): 432 fold | IC50 fold lower than gemcitabine ([21]; MIAPACA-2 cell line): 127 fold | IC50 ([21]; MiaPaCa-2, 48 hours drug treatment): 0.729 µM | IC50 [10]: 7.46 µM | SI (selectivity index, CC50/IC50) ([12]; SARS-CoV-2 in Vero cells): 306 | IC50 [12, 27]: 0.16 µM

CNC(=O)c1cc(Oc2ccc(NC(=O)Nc3ccc(Cl)c(C(F)(F)F)c3)cc2)ccn1 [Sorafenib]
IC50 [22]: 12.3 µM | IC50 [23]: 6 µM

Cc1cccc(C)c1OCC(=O)N[C@@H](Cc1ccccc1)[C@@H](O)C[C@H](Cc1ccccc1)NC(=O)[C@H](C(C)C)N1CCCNC1=O [Lopinavir]
CC50 [11]: > 50 µM | IC50 fold higher than the IC50 of the cocrystal ([12]; SARS-CoV-2 in Vero cells): about 64.38 fold | SI (selectivity index, CC50/IC50) ([12]; SARS-CoV-2 in Vero cells): 4.85 | IC50 [12, 28]: 10.3 µM

CN(C)C(=O)COC(=O)Cc1ccc(OC(=O)c2ccc(NC(=N)N)cc2)cc1.O=C(Nc1ccc([N+](=O)[O-])cc1Cl)c1cc(Cl)ccc1O [Example 21]
Cumulative permeation amount J ([24]; camostat, donor pH 5.0 FeSSIF 37° C., acceptor ethyl alcohol:pH 7.4 PBS (1:9)): 876.29 μg/ml/cm^2/h and 876.26 μg/ml/cm^2/h | cumulative permeation amount of camostat, fold better than camostat single material ([24]; cocrystal vs camostat single material): 1.56 fold

CN(C)C(=O)COC(=O)Cc1ccc(OC(=O)c2ccc(NC(=N)N)cc2)cc1.O=C(Nc1ccc([N+](=O)[O-])cc1Cl)c1cc(Cl)ccc1O [Example 17]
IC50 [3]: 6.29 µM | IC50 fold lower than Tamoxifen [3]: 1.4 fold | IC50 [4]: 1.5 µM | IC50 fold lower than Herceptin [4]: 16 fold | IC50 [5]: 5.82 µM | CC50 [13]: > 50 µM | IC50 [7]: 2.25 µM | IC50 fold lower than Cisplatin [7]: 11 fold | IC50 [8]: 4.55 µM | pH 7 solubility [25]: 55.2 μg/ml | Cumulative permeation amount of drug [26]: 2.03 μg/ml/cm^2/h | cumulative permeation amount of niclosamide, fold better than niclosamide single material [26]: 1.72 fold | IC50 [10]: 7.48 µM | SI (selectivity index, CC50/IC50) ([12]; SARS-CoV-2 in Vero cells): 313 | IC50 [12, 27]: 0.16 µM

N.N.[Cl][Pt][Cl] [Cisplatin, reference compound]
IC50 [7]: ≥ 25 µM | IC50 [8]: 12.3 µM

CC(=O)O[C@H]1C(=O)[C@@]2(C)[C@H]([C@H](OC(=O)c3ccccc3)[C@]3(O)C[C@H](OC(=O)[C@H](O)[C@@H](NC(=O)c4ccccc4)c4ccccc4)C(C)=C1C3(C)C)[C@]1(OC(C)=O)CO[C@@H]1C[C@@H]2O [Paclitaxel, reference compound]
IC50 ([5]; Homo sapiens): 13.7 µM

O=C(Nc1ccc([N+](=O)[O-])cc1Cl)c1cc(Cl)ccc1O [Niclosamide]
pH 7 solubility [25]: hardly detected | pH 7 solubility ([25]; 1 h): <0.3 μg/ml | Cumulative permeation amount of drug ([26]; 4 mg/ml): 1.18 μg/ml/cm^2/h

CCN(CC)CCCC(C)Nc1ccnc2cc(Cl)ccc12 (stereo not shown) [Chloroquine]
CC50 [11]: > 150 µM | IC50 [12, 28]: 7.47 µM
